pIC50: −log10 of the molar value.
Tests used:
human CRTH2 [1] = molecular target: T1, human CRTH2 (Homo sapiens, UniProt Q9Y5Y4); experiment: Human CRTH2 Receptor Binding Assay (whole cell, [3H]ramatroban competition); set-up: two mammalian expression vectors that harbored human CRTH2 and G-alpha16 cDNAs; expressed in transfected cells; conditions: CHO-K1 cells expressing human CRTH2 and G-alpha16; 20 nM [3H]ramatroban; 1 hour, room temperature
T1 sequence (Q9Y5Y4 1-395): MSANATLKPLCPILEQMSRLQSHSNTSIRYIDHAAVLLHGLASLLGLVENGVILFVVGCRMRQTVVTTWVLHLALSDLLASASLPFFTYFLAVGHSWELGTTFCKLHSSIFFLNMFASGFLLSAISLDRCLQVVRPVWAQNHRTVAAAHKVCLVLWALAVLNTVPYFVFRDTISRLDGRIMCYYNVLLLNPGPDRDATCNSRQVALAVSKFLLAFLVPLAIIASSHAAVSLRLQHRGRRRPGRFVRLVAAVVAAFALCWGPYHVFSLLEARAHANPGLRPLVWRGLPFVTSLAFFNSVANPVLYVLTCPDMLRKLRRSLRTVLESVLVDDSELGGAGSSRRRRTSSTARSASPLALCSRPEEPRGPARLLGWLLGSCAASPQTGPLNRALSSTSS
From the text: A whole cell receptor binding assay using [^3H]ramatroban as the competing radioactive ligand was employed to evaluate the compound binding activity to human CRTH2. The radioactive ligand [^3H]ramatroban was synthesized according to Sugimoto et. al. (Eur. J. Pharmacol. 2005, 524, 30-37) to a specific activity of 42 Ci/mmol
A cell line stably expressing human CRTH2 was established by transfecting CHO-K1 cells with two mammalian expression vectors that harbored human CRTH2 and G-alpha16 cDNAs, respectively, using FuGene® 6 transfection reagent (from Roche). Stable clones expressing CRTH2 were selected by staining each clone with BM16 (BD Pharmingen™ from BD Biosciences, a division of Becton, Dickinson and Company), which is a rat monoclonal antibody to human CRTH2. The cells were maintained as monolayer cultures in Ham's F-12 medium containing 10% fetal bovine serum, 100 units/mL penicillin, 100 μg/mL streptomycin, 2 mM glutamine, 0.5 mg/mL G418 (geneticin) for CRTH2, and 0.2 mg/mL hygromycin-B (for G-alpha 16). For whole cell receptor binding assay, the monolayer cells were rinsed once with PBS (phosphate buffered saline), dissociated using ethylenediaminetetraacetate (Versene™ EDTA from Lonza Inc.), and suspended in PBS containing 10 mM MgCl2 and 0.06% BSA (bovine serum albumin) at 1.5×10^6 cells/mL.
The binding reactions (0.2 mL) were performed in 96-well plates at room temperature in PBS containing 1.5×10^5 cells, 10 mM MgCl2, 0.06% BSA, 20 nM [^3H]ramatroban, and test compound at various concentrations. After 1 hour of binding reactions, the cells were harvested on GF™/B filter microplates (microtiter plates with embedded glass fiber from PerkinElmer, Inc.) and washed 5 times with PBS using a Filtermate™ Harvester (a cell harvester that harvests and washes cells from microplates from PerkinElmer, Inc.). The radioactivities bound to the cells were determined using a microplate scintillation counter (TopCount® NXT, from PerkinElmer, Inc.) after adding 50 μL of Microscint™ 20 scintillation fluid (from PerkinElmer, Inc.) to each well of the filter plates. The radioactivity from non-specific binding was determined by replacing compound with 10 μM of 15(R)-15-methyl PGD2 (from Cayman Chemical Company) in the reaction mixtures. The radioactivity bound to the cells in the absence of compound (total binding) was determined by replacing compound with 0.25% of DMSO (dimethyl sulfoxide) in the reaction mixture. Specific binding data were obtained by subtracting the radioactivity of non-specific binding from each binding data.
The IC50 value is defined as the concentration of the tested compound that is required for 50% inhibition of total specific binding. In order to calculate the IC50 value, the percent inhibition data were determined for 7 concentrations for each compound. The percent inhibition for a compound at each concentration was calculated according to the following formula, [1-(specific binding in the presence of compound)/(total specific binding)]×100. The IC50 value was then obtained by fitting the percent inhibition data to a sigmoidal dose-response (4 parameter logistic) model in the XLfit® software Excel add-in program [from ID Business Solutions Ltd., model 205, where F(x)=(A+(B−A)/(1+((C/x)̂D)))].

human CRTH2 [2] = molecular target: T1, human CRTH2; experiment: Calcium Flux Assay Using Fluorometric Imaging Plate Reader (FLIPR); format: cell-based; set-up: expressed in transfected cells; host or cells: CHO-K1 previously transfected with G-alpha 16; conditions: CHO-K1 cells with G-alpha 16 and human CRTH2; inhibition of DK-PGD2 ligand-induced Ca2+ flux
Procedure: CHO-K1 cells previously transfected with G-alpha 16 were subsequently transfected with the human CRTH2 receptor and the neomycin resistance gene. Following selection in 800 μg/mL G418 (geneticin), individual clones were assayed for their receptor expression based on staining with an anti human CRTH2 IgG, followed by assaying for their response to 13,14-dihydro-15-keto Prostaglandin D2 (DK-PDG2) (ligand) in the Ca^2+ Flux assay. Positive clones were then cloned by limiting dilution cloning. The transfected cells were cultured in Ham's F-12 medium supplemented with 10% fetal bovine serum, 2 mM glutamine, 100 U/mL penicillin/100 μg/mL streptomycin, 200 μg/mL hygromycin B, and 800 μg/mL G418 (geneticin). Cells were harvested with trypsin-EDTA (trypsin-ethylenediaminetetraacetic acid) and counted using ViaCount® reagent (from Guava Technologies, Inc. which contains two DNA-binding dyes that enable the reagent user to distinguish between viable and non-viable cells). The cell suspension volume was adjusted to 2.5×10^5 cells/mL with complete growth media. Aliquots of 50 μL were dispensed into BD Falcon™ 384 well black/clear microplates (from BD Biosciences, a division of Becton, Dickinson and Company) and the microplates were placed in a 37° C. CO2 incubator overnight. The following day, the microplates were used in the assay.
Loading Buffer containing dye (from the FLIPR® Calcium 3 Assay Kit from Molecular Devices, a division of MDS Analytical Technologies and MDS Inc.) was prepared by dissolving the contents of one bottle into 200 mL Hank's Balanced Salt Solution containing 20 mM HEPES (4-(2-hydroxyethyl)-1-piperazineethanesulfonic acid) and 2.5 mM probenecid. Growth media was removed from the cell plates and 25 μL of Hank's Balanced Salt Solution (HBSS) containing 20 mM HEPES, 0.05% BSA and 2.5 mM probenecid was added to each well followed by 25 μL of diluted dye using a Multidrop dispenser. The plates were then incubated for 1 hour at 37° C.
During the incubation, test compound plates were prepared by adding 90 μL of HBSS/20 mM HEPES/0.005% BSA buffer to the 2 μL of serial diluted compounds. To prepare serial diluted compounds, 20 mM stocks of compounds were dissolved in 100% DMSO. The compound dilution plate was set up as follows: well #1 received 5 μL of compound plus 10 μL of DMSO. Wells 2-10 received 10 μL of DMSO. 5 μL was mixed and transferred from well #1 into well #2. 1:3 serial dilutions were continued out 10 steps. 2 μl of diluted compound was transferred into duplicate wells of a 384 well “assay plate” and then 90 μL of buffer was added.
After incubation, both the cell and “assay plate” plates were brought to the fluorometric imaging plate reader (FLIPR®) and 20 μL of the diluted compounds were transferred to the cell plates by the FLIPR®. Plates were then incubated for 1 hour at room temperature. After the 1 hour incubation, plates were returned to the FLIPR® and 20 μL of 4.5× concentrated ligand was added to the cell plates. During the assay, fluorescence readings were taken simultaneously from all 384 wells of the cell plate every 1.5 seconds. Five readings were taken to establish a stable baseline, then 20 μL of sample was rapidly (30 μL/sec) and simultaneously added to each well of the cell plate. The fluorescence was continuously monitored before, during and after sample addition for a total elapsed time of 100 seconds. Responses (increase in peak fluorescence) in each well following agonist addition were determined. The initial fluorescence reading from each well, prior to ligand stimulation, was used as a zero baseline value for the data from that well. The responses were expressed as % inhibition of the buffer control. […]

Work on `O=C(O)COc1cccc2c1CCCCC2NS(=O)(=O)c1cc(Cl)cc(Cl)c1` (stereo not drawn) [Example 2, [5-(3,5-Dichloro-benzenesulfonylamino)-6,7,8,9-tetrahydro-5H-benzocyclohepten-1-yloxy]-acetic acid] yielded a pIC50 (human CRTH2 [1]) of 7.23 and a pIC50 (human CRTH2 [2]) of 6.47.

`O=C(O)COc1cccc2c1CCCCC2NS(=O)(=O)c1ccc(-c2ccccc2)cc1` (stereo not drawn) [Example 4, [5-(Biphenyl-4-sulfonylamino)-6,7,8,9-tetrahydro-5H-benzocyclohepten-1-yloxy]-acetic acid] gave a pIC50 (human CRTH2 [1]) of 7.47 and a pIC50 (human CRTH2 [2]) of 6.59.

`CS(=O)(=O)c1cccc(S(=O)(=O)NC2CCCCc3c(OCC(=O)O)cccc32)c1` (stereo not drawn) [Example 5, [5-(3-Methanesulfonyl-benzenesulfonylamino)-6,7,8,9-tetrahydro-5H-benzocyclohepten-1-yloxy]-acetic acid] was tested, and the pIC50 (human CRTH2 [1]) was 6.02 and the pIC50 (human CRTH2 [2]) was 6.24.

`O=C(O)COc1cccc2c1CCCCC2NS(=O)(=O)c1cc(Br)cc(C(F)(F)F)c1` (stereo not drawn) [Example 8, [5-(3-Bromo-5-trifluoromethyl-benzenesulfonylamino)-6,7,8,9-tetrahydro-5H-benzocyclohepten-1-yloxy]-acetic acid] gave a pIC50 (human CRTH2 [1]) of 7.33 and a pIC50 (human CRTH2 [2]) of 7.44.

Compound `CN(C1CCCCc2c(OCC(=O)O)cccc21)S(=O)(=O)c1cc(Br)cc(C(F)(F)F)c1` (stereo not drawn) [Example 9, {5-[(3-Bromo-5-trifluoromethyl-benzenesulfonyl)-methyl-amino]-6,7,8,9-tetrahydro-5H-benzocyclohepten-1-yloxy}-acetic acid] has a pIC50 (human CRTH2 [1]) of 7.24 and a pIC50 (human CRTH2 [2]) of 8.21.

Work on `O=C(O)COc1cccc2c1CCCCC2NS(=O)(=O)c1ccc(-c2ccc(O)cc2)cc1` (stereo not drawn) [Example 23, [5-(4′-Hydroxy-biphenyl-4-sulfonylamino)-6,7,8,9-tetrahydro-5H-benzocyclohepten-1-yloxy]-acetic acid] yielded a pIC50 (human CRTH2 [1]) of 6.99 and a pIC50 (human CRTH2 [2]) of 7.38.

`Cc1cncc(-c2ccc(S(=O)(=O)NC3CCCCc4c(OCC(=O)O)cccc43)cc2)c1` (stereo not drawn) [Example 25, {5-[4-(5-Methyl-pyridin-3-yl)-benzenesulfonylamino]-6,7,8,9-tetrahydro-5H-benzocyclohepten-1-yloxy}-acetic acid] showed a pIC50 (human CRTH2 [1]) of 7.47 and a pIC50 (human CRTH2 [2]) of 6.91.

Work on `CS(=O)(=O)c1cccc(-c2ccc(S(=O)(=O)NC3CCCCc4c(OCC(=O)O)cccc43)cc2)c1` (stereo not drawn) [Example 29, [5-(3′-Methanesulfonyl-biphenyl-4-sulfonylamino)-6,7,8,9-tetrahydro-5H-benzocyclohepten-1-yloxy]-acetic acid] yielded a pIC50 (human CRTH2 [1]) of 8.04 and a pIC50 (human CRTH2 [2]) of 7.22.

With `CC(C)c1cccc(-c2ccc(S(=O)(=O)NC3CCCCc4c(OCC(=O)O)cccc43)nc2)c1` (stereo not drawn) [Example 31, {5-[5-(3-Isopropyl-phenyl)-pyridine-2-sulfonylamino]-6,7,8,9-tetrahydro-5H-benzocyclohepten-1-yloxy}-acetic acid] the pIC50 (human CRTH2 [1]) was 7.57 and the pIC50 (human CRTH2 [2]) was 6.32.

Compound `CN(C1CCCCc2c(OCC(=O)O)cccc21)S(=O)(=O)c1ccc(-c2cccc(CCO)c2)cn1` (stereo not drawn) [Example 38, [5-({5-[3-(2-Hydroxy-ethyl)-phenyl]-pyridine-2-sulfonyl}-methyl-amino)-6,7,8,9-tetrahydro-5H-benzocyclohepten-1-yloxy]-acetic acid] has a pIC50 (human CRTH2 [1]) of 5.67.

`Cc1ccc(-c2cccc(S(=O)(=O)NC3CCCCc4c(OCC(=O)O)cccc43)c2)cc1` (stereo not drawn) [Example 39, [5-(4′-Methyl-biphenyl-3-sulfonylamino)-6,7,8,9-tetrahydro-5H-benzocyclohepten-1-yloxy]-acetic acid] gave a pIC50 (human CRTH2 [1]) of 6.29.

`Cc1ccc(-c2cccc(S(=O)(=O)N(C)C3CCCCc4c(OCC(=O)O)cccc43)c2)cc1` (stereo not drawn) [Example 40, {5-[Methyl-(4′-methyl-biphenyl-3-sulfonyl)-amino]-6,7,8,9-tetrahydro-5H-benzocyclohepten-1-yloxy}-acetic acid] gave a pIC50 (human CRTH2 [1]) of 6.26.

With `CC(C)c1cccc(-c2cccc(S(=O)(=O)N(C)C3CCCCc4c(OCC(=O)O)cccc43)c2)c1` (stereo not drawn) [Example 42, {5-[(3′-Isopropyl-biphenyl-3-sulfonyl)-methyl-amino]-6,7,8,9-tetrahydro-5H-benzocyclohepten-1-yloxy}-acetic acid] the pIC50 (human CRTH2 [1]) was 6.07.

`CC(C)c1cc(C(F)(F)F)cc(S(=O)(=O)NC2CCCCc3c(OCC(=O)O)cccc32)c1` (stereo not drawn) [Example 43, [5-(3-Isopropyl-5-trifluoromethyl-benzenesulfonylamino)-6,7,8,9-tetrahydro-5H-benzocyclohepten-1-yloxy]-acetic acid] was tested, and the pIC50 (human CRTH2 [1]) was 6.53.

For `CC(C)c1cc(C(F)(F)F)cc(S(=O)(=O)N(C)C2CCCCc3c(OCC(=O)O)cccc32)c1` (stereo not drawn) [Example 44, {5-[(3-Isopropyl-5-trifluoromethyl-benzenesulfonyl)-methyl-amino]-6,7,8,9-tetrahydro-5H-benzocyclohepten-1-yloxy}-acetic acid], the pIC50 (human CRTH2 [1]) was 6.70.
